Results reported in patent US20050208496A1, “Methods of testing for bronchial asthma or chronic obstructive pulmonary disease” (Genox Research, Inc., priority 2002, published 2005).

Tested on: respiratory epithelial cells

IL-13: human IL-13 (Peprotech, Inc.) added to the medium at 50 ng/mL to stimulate respiratory epithelial cells
DD96 (31610_at) expression, fold change upon IL-13 stimulation (lot 1, Day 3, AI method): 6.3 fold | DKFZP564O0823 (41402_at) expression, fold change upon IL-13 stimulation (lot 1, Day 3, AI method): 5 fold | DKFZP566J091 (57197_at) expression fold change (lot 1, Day 3, AI method): 9.4 fold | DKFZp564N1116 (37784_at) expression, fold change upon IL-13 stimulation (lot 1, Day 3, AI method): 6.4 fold | DNAJA1 (276_at) expression fold change upon IL-13 stimulation (lot 1, Day 3, AI method): 2 fold | DPYD (38220_at) expression fold change upon IL-13 stimulation (lot 1, Day 3, AI method): 2.7 fold | EMILIN-2 (51628_at) expression fold change (lot 1, Day 3, AI method): 2.1 fold | FABP4 (38430_at) expression, fold change upon IL-13 stimulation (lot 1, Day 3, AI method): 3.8 fold | FBP1 (36495_at) expression fold change upon IL-13 stimulation (lot 1, Day 3, AI method): 3.2 fold | FETUB (32620_at) expression fold change (lot 1, Day 3, AI method): 3.7 fold | FETUB (33101_g_at) expression fold change (lot 1, Day 3, AI method): 2.2 fold | FLJ10261 (43366_at) expression fold change (lot 1, Day 3, AI method): 7.9 fold | FLJ22693 (53777_at) expression fold change (lot 1, Day 3, AI method): 2.8 fold | FUT10 (908_at) expression fold change upon IL-13 stimulation (lot 1, Day 3, AI method): 5.8 fold | G1P3 (1358_s_at) expression, fold change upon IL-13 stimulation (lot 1, Day 3, AI method): 7.1 fold | GADD45G (39154_at) expression fold change upon IL-13 stimulation (lot 1, Day 3, AI method): 3.1 fold | GBP5 (52615_at) expression fold change (lot 1, Day 3, AI method): 2.4 fold | GS3686 (36927_at) expression, fold change upon IL-13 stimulation (lot 1, Day 3, AI method): 5.7 fold | HAS3 (54604_at) expression fold change (lot 1, Day 3, AI method): 2.3 fold | HDAC9 (37483_at) expression fold change upon IL-13 stimulation (lot 1, Day 3, AI method): 4.1 fold | HLA-F (37420_i_at) expression, fold change upon IL-13 stimulation (lot 1, Day 3, AI method): 2.9 fold | HLA-F (49203_f_at) expression fold change (lot 1, Day 3, AI method): 2.4 fold | HS3ST1 (41556_s_at) expression fold change upon IL-13 stimulation (lot 1, Day 3, AI method): 3.4 fold | ICAMt (32640_at) expression fold change upon IL-13 stimulation (lot 1, Day 3, AI method): 6.5 fold | IFI27 (425_at) expression, fold change upon IL-13 stimulation (lot 1, Day 3, AI method): 3.8 fold | IFI27 (48864_at) expression fold change (lot 1, Day 3, AI method): 2.9 fold | IFI35 (464_s_at) expression, fold change upon IL-13 stimulation (lot 1, Day 3, AI method): 13.2 fold | IFI44 (37641_at) expression, fold change upon IL-13 stimulation (lot 1, Day 3, AI method): 5.9 fold | IFIT1 (915_at) expression, fold change upon IL-13 stimulation (lot 1, Day 3, AI method): 19.2 fold | IFIT1 (32814_at) expression, fold change upon IL-13 stimulation (lot 1, Day 3, AI method): 10.6 fold | IFIT4 (38584_at) expression, fold change upon IL-13 stimulation (lot 1, Day 3, AI method): 2.7 fold | IFITM1 (675_at) expression, fold change upon IL-13 stimulation (lot 1, Day 3, AI method): 10.7 fold | IL13RA2 (1016_s_at) expression fold change upon IL-13 stimulation (lot 1, Day 3, AI method): 10.2 fold | IL19 (47855_at) expression fold change (lot 1, Day 3, AI method): 4 fold | ILIRL1 (40322_at) expression, fold change upon IL-13 stimulation (lot 1, Day 3, AI method): 5.5 fold | IRF7 (36412_s_at) expression fold change (lot 1, Day 3, AI method): 4.9 fold | ISG15 (1107_s_at) expression, fold change upon IL-13 stimulation (lot 1, Day 3, AI method): 13.1 fold | ISG15 (38432_at) expression, fold change upon IL-13 stimulation (lot 1, Day 3, AI method): 23.7 fold | ISG20 (33304_at) expression, fold change upon IL-13 stimulation (lot 1, Day 3, AI method): 4.8 fold | KIAA0537 (33787_at) expression, fold change upon IL-13 stimulation (lot 1, Day 3, AI method): 7.5 fold | KIAA1268 (57050_at) expression fold change (lot 1, Day 3, AI method): 3.2 fold | KIAAI268 (59516_at) expression fold change (lot 1, Day 3, AI method): 4.1 fold | LAMP3 (37168_at) expression, fold change upon IL-13 stimulation (lot 1, Day 3, AI method): 6.3 fold | LOC57118 (51085_at) expression fold change (lot 1, Day 3, AI method): 2.4 fold | LOC64116 (40456_at) expression, fold change upon IL-13 stimulation (lot 1, Day 3, AI method): 2.2 fold | MDA5 (51920_at) expression fold change (lot 1, Day 3, AI method): 6.6 fold | MFHAS1 (50388_at) expression fold change (lot 1, Day 3, AI method): 2.3 fold | MICB (35937_at) expression, fold change upon IL-13 stimulation (lot 1, Day 3, AI method): 3.3 fold | MKP-L (38272_at) expression, fold change upon IL-13 stimulation (lot 1, Day 3, AI method): 2 fold | MMP7 (668_s_at) expression, fold change upon IL-13 stimulation (lot 1, Day 3, AI method): 2.6 fold | MX2 (879_at) expression fold change (lot 1, Day 3, AI method): 8.7 fold | MXI (37014_at) expression fold change (lot 1, Day 3, AI method): 12.3 fold | NCF2 (41038_at) expression fold change (lot 1, Day 3, AI method): 2.9 fold | NK4 (39119_s_at) expression fold change upon IL-13 stimulation (lot 1, Day 3, AI method): 4 fold | NOS2A (1948_f_at) expression fold change upon IL-13 stimulation (lot 1, Day 3, AI method): 5.3 fold | NOS2A (48918_at) expression fold change (lot 1, Day 3, AI method): 4.3 fold | OAF (39695_at) expression, fold change upon IL-13 stimulation (lot 1, Day 3, AI method): 3.4 fold | OAS1 (38388_at) expression fold change upon IL-13 stimulation (lot 1, Day 3, AI method): 6.2 fold | OAS1 (38389_at) expression fold change upon IL-13 stimulation (lot 1, Day 3, AI method): 4.5 fold | OAS2 (39263_at) expression fold change upon IL-13 stimulation (lot 1, Day 3, AI method): 5 fold | OSF-2 (1451_s_at) expression fold change upon IL-13 stimulation (lot 1, Day 3, AI method): 10.5 fold | PHKB (46459_at) expression fold change (lot 1, Day 3, AI method): 2 fold | PKD2 (38120_at) expression, fold change upon IL-13 stimulation (lot 1, Day 3, AI method): 2.8 fold | PLOD2 (34795_at) expression fold change upon IL-13 stimulation (lot 1, Day 3, AI method): 2.3 fold | PLS1 (39951_at) expression fold change (lot 1, Day 3, AI method): 2.5 fold | PLSCR1 (32775_r_at) expression fold change upon IL-13 stimulation (lot 1, Day 3, AI method): 2.9 fold | PSMB9 (38287_at) expression fold change upon IL-13 stimulation (lot 1, Day 3, AI method): 3.2 fold | RIG-1 (59215_at) expression fold change (lot 1, Day 3, AI method): 7.2 fold | SAMHD1 (34714_at) expression, fold change upon IL-13 stimulation (lot 1, Day 3, AI method): 3.4 fold | SCYB10 (431_at) expression fold change upon IL-13 stimulation (lot 1, Day 3, AI method): 5.2 fold | SCYB11 (35061_at) expression fold change upon IL-13 stimulation (lot 1, Day 3, AI method): 8.9 fold | SECTM1 (41045_at) expression, fold change upon IL-13 stimulation (lot 1, Day 3, AI method): 6.5 fold | SERPINB2 (37185_at) expression fold change (lot 1, Day 3, AI method): 2.1 fold | SERPINB4 (1549_s_at) expression fold change (lot 1, Day 3, AI method): 4.2 fold | SERPINB6 (34789_at) expression fold change (lot 1, Day 3, AI method): 2.2 fold | SIAT1 (41352_at) expression fold change upon IL-13 stimulation (lot 1, Day 3, AI method): 4.7 fold | SLC26A4, pendrin (36376_at) expression fold change (lot 1, Day 3, AI method): 18.8 fold | SSI-1 (41592_at) expression, fold change upon IL-13 stimulation (lot 1, Day 3, AI method): 5.6 fold | STAT1 (32860_g_at) expression fold change (lot 1, Day 3, AI method): 2.8 fold | STAT1 (33338_at) expression fold change (lot 1, Day 3, AI method): 9.7 fold | STAT1 (33339_g_at) expression fold change (lot 1, Day 3, AI method): 3.5 fold | TGM2 (38404_at) expression fold change upon IL-13 stimulation (lot 1, Day 3, AI method): 8.5 fold | THBS1 (115_at) expression fold change upon IL-13 stimulation (lot 1, Day 3, AI method): 10.4 fold | TSPAN-3 (38612_at) expression, fold change upon IL-13 stimulation (lot 1, Day 3, AI method): 2.2 fold | TXNRD1 (39425_at) expression fold change upon IL-13 stimulation (lot 1, Day 3, AI method): 2 fold | UBE2L6 (40505_at) expression fold change upon IL-13 stimulation (lot 1, Day 3, AI method): 3.3 fold | UFD1L (811_at) expression, fold change upon IL-13 stimulation (lot 1, Day 3, AI method): 2.3 fold | WARS (38121_at) expression fold change upon IL-13 stimulation (lot 1, Day 3, AI method): 3.5 fold | cig5 (38549_at) expression, fold change upon IL-13 stimulation (lot 1, Day 3, AI method): 10.1 fold | diubiquitin (39959_at) expression, fold change upon IL-13 stimulation (lot 1, Day 3, AI method): 21.3 fold | AA149682 (51925_at) expression fold change (lot 1, Day 3, IMM method): 2.4 fold | AA541787 (52622_at) expression fold change (lot 1, Day 3, IMM method): 2.6 fold | ADAM28 (35479_at) expression, fold change upon IL-13 stimulation (lot 1, Day 3, IMM method): 4.8 fold | AI565105 (54886_at) expression fold change (lot 1, Day 3, IMM method): 2.2 fold | AI659927 (54033_at) expression fold change (lot 1, Day 3, IMM method): 8.3 fold | AI989346 (52327_s_at) expression fold change (lot 1, Day 3, IMM method): 2.3 fold | ALOX15 (34636_at) expression, fold change upon IL-13 stimulation (lot 1, Day 3, IMM method): 69.2 fold | ARL7 (57151_at) expression fold change (lot 1, Day 3, IMM method): 3.2 fold | AW019985 (48826_s_at) expression fold change (lot 1, Day 3, IMM method): 6 fold | BAL (52167_at) expression fold change (lot 1, Day 3, IMM method): 3.6 fold | BRCA1 (626_s_at) expression fold change (lot 1, Day 3, IMM method): 7.6 fold | BST2 (39061_at) expression, fold change upon IL-13 stimulation (lot 1, Day 3, IMM method): 8.3 fold | C21orf11 (58957_at) expression fold change (lot 1, Day 3, IMM method): 6.2 fold | CDH6 (1620_at) expression fold change upon IL-13 stimulation (lot 1, Day 3, IMM method): 4.2 fold | CDH6 (57421_at) expression fold change (lot 1, Day 3, IMM method): 4.7 fold | CDH26 (46916_at) expression fold change (lot 1, Day 3, IMM method): 16 fold
